Assay results as given in patent US9624161B2 (priority 2009, dated 2017).

Key:
[1] = test system: intact and orchiectomized (ORX) male Sprague-Dawley rats; assay: Suppression of LH and testosterone in intact and ORX rats, 14-day subcutaneous dosing; type: in vivo, rat; details: for Serum testosterone: LLOQ 0.08 ng/mL
Method: An in vivo dose-response study was conducted to evaluate the effect of Compound IV on LH suppression in intact and orchiectomized (ORX) male rats.
Male Sprague-Dawley rats weighing approximately 200 g were maintained on a 12-h light/dark cycle with food (2016 Teklad Global 16% Protein Rodent Diet, Harlan, Madison, Wis.) and water available ad libitum. The animal protocol was reviewed and approved by the Institutional Animal Care and Use Committee of the University of Tennessee.
The test article for this study was weighed and dissolved in 10% DMSO (Fisher) diluted with PEG 300 (Acros Organics, NJ) to prepare the appropriate dose formulations. For this study, sixty (60) male Sprague-Dawley rats were randomized by body weight, and assigned to one of the twelve treatment groups (n=5 animals/group). The animals were housed in groups of 2 to 3 animals per cage. Control groups (intact and orchidectomized (ORX)) were administered vehicle daily. […]
After a 14-day dosing regimen, the animals were sacrificed under anesthesia (ketamine/xylazine, 87:13 mg/kg) and body weights were recorded. In addition, ventral prostate, seminal vesicles, and levator ani muscle were removed, cleaned of extraneous tissue, and individually weighed. Organ weight were normalized to body weight and expressed as a percentage of intact control. Blood was collected from the abdominal aorta under isoflurane anesthesia and allowed to clot. Serum was separated by centrifugation and stored at −80° C. prior to determination of serum hormone levels. Serum luteinizing hormone (LH) and follicle stimulating hormone (FSH) concentrations were determined by the Rat Pituitary Luminex Assay (Millipore, Billerica, Mass.) according to manufacturer's directions. The lower limit of quantitation for this assay was 3.2 pg/mL for LH and 32 pg/mL for FSH. Testosterone was measured by a Testosterone EIA (Alpco Diagnostics, Salem, N.H.) with a LLOQ of 0.08 ng/mL. Serum hormone values below the lower limit of quantitation (BLOQ) were omitted from analysis of group means. Therefore, the reported value for LH and T in the groups with samples BLOQ is higher than the actual value. This method of analysis provided the most conservative estimate of LH and T suppression. Fisher's Least Significant Difference test was used to compare individual dose groups to the intact and ORX vehicle control groups. Significance was defined a priori as a P-value <0.05.

[2] = test system: treatment naïve male Cynomolgus monkeys; assay: Suppression and recovery of androgen levels in intact male monkeys, 30 mg/kg oral for 7 days; type: in vivo, Cynomolgus monkey; set-up: Circulating androgen level (mean±SEM) / Circulating androgen level after recovery: unit not given here
Method: The effect of Compound IV on suppression and recovery of testosterone levels in intact male monkeys was evaluated in conjunction with an oral pharmacokinetic study. Three treatment naïve male Cynomolgus monkeys (2 to 3 years old) were administered Compound IV at 30 mg/kg daily by oral gavage for 7 consecutive days. Blood samples were collected and divided into serum and plasma for testosterone and Compound IV quantitative measurements, respectively.

[3] = Preliminary oral pharmacokinetics in monkeys; type: in vivo, monkey; details: preliminary pharmacokinetic studies
Method: Formulations using polyethylene glycol 300 (PEG300) generally produced higher exposures than microemulsions prepared in Tween 80 diluted in deionized water. […] Importantly, in dogs the exposure in the male 30 mg/kg PEG300 oral dose group exceeded the exposure necessary to produce the maximal effect on prostate reduction in the rat model of LH suppression.

rats = assay: Single and repeated oral dose toxicity in rats (up to 28 days); type: in vivo, rat
Excerpt: Compound IV was well-tolerated by rats and dogs after single and repeated oral administration (up to 28 days).

[4] = test system: healthy older male volunteers; assay: Study 4: proof of concept study in healthy older male volunteers (1000, 1500, 2000 mg tablets, 28 days); type: in vivo, human; details: each dose arm (1000, 1500, 2000 mg)
[5] = test system: treatment naïve prostate cancer patients; assay: Study 5: loading dose study (1000 mg BID, 1500 mg BID) in treatment naïve prostate cancer patients; type: in vivo; details: for Castration (%): patients receiving >14 days; for Subjects that reached castrate levels of serum total testosterone: subjects that had reached Day 28
Method: Another study (Study 5) to assess 1000 mg twice per day and 1500 mg twice daily loading doses of Compound IV for 28 days was conducted. Subjects that were castrate on Day 28 received either 1000 mg or 2000 mg Compound IV daily to maintain the castration.
Thirty (30) and 28 subjects were randomized to the 1500 mg BID and 1000 mg BID loading doses, respectively. Among the subjects that had reached Day 28, 90% (18/20) of the subjects in the 1500 mg BID dose group and 94% (17/18) of the subjects in the 1000 mg BID dose group had reached castrate levels of serum total testosterone. During this study, two (2) subjects in the 1500 mg BID dose group experienced a VTE, including one fatal pulmonary embolus (PE) and three (3) subjects in the 1000 mg BID dose group experienced a VTE. See FIG. 26 for an overview of all the clinical studies on Compound IV.

[6] = test system: castrated male cynomolgus monkeys; assay: Compound IV studies on castrated monkeys, 90 days (Example 22); type: in vivo, cynomolgus monkey
rat ER-α = rat ER-α (Rattus norvegicus, UniProt P06211)
rat ER-α, sequence (P06211 whole entry): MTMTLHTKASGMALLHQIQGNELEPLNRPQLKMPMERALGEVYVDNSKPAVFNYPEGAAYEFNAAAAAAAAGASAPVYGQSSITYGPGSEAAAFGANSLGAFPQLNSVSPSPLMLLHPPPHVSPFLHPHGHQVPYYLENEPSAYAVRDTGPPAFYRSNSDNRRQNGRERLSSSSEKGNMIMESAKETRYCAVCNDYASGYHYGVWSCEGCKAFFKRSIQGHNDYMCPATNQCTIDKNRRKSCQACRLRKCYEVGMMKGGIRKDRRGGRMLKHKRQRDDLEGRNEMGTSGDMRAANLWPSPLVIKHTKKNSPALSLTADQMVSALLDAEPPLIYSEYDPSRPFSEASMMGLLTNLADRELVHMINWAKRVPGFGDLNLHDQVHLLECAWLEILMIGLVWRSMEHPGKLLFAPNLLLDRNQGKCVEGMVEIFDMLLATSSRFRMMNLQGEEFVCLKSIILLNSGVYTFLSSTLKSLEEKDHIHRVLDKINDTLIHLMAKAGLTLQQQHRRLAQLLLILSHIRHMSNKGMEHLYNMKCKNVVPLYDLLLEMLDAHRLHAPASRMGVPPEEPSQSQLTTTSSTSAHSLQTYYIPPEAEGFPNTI

O=C(c1ccc(O)c(F)c1)N(c1ccc(O)cc1)c1ccc(F)cc1 [Compound IV, 3-fluoro-N-(4-fluorophenyl)-4-hydroxy-N-(4-hydroxyphenyl)benzamide]
Serum testosterone ([1]; Intact rats, 10 mg/kg per day s.c., 14 days): BLOQ | Serum testosterone ([1]; Intact rats, 30 mg/kg per day s.c., 14 days): BLOQ | Serum testosterone ([1]; ORX rats, all dose groups (0.3-30 mg/kg/day)): BLOQ | Suppression of serum testosterone ([1]; intact male rats, 3, 10 and 300 mg/kg, after 24 h, 72 h and 168 h (FIG. 9)): Rapid and potent suppression | Doses with significant reduction of FSH levels ([1]; intact rats, 14 days s.c.): ≥ 10 mg/kg/day | Doses with significant reduction of testosterone levels ([1]; intact rats, 14 days s.c.): ≥ 3 mg/kg per day | Circulating androgen level after recovery ([2]; 30 mg/kg daily oral 7 days, then 18-day drug-free recovery): 1757.7±369.5 | Decrease of circulating androgen levels compared to baseline ([2]; 30 mg/kg daily oral, 7 days, three monkeys): up to 47% | Circulating androgen level (mean±SEM) ([2]; 30 mg/kg daily oral, Day 2): 997±104 | Circulating androgen level (mean±SEM) ([2]; 30 mg/kg daily oral, Day 6): 852±136 | Oral bioavailability [3]: approximates or exceeds that in dogs | Tolerability after single and repeated oral administration (rats): well-tolerated | SHBG increase over baseline [4]: 300-600% | Subjects that experienced a VTE ([5]; 1000 mg BID dose group): 3 subjects | Castration (%) ([5]; 1000 mg BID, D28): 84.2% | Castration (%) ([5]; 1000 mg BID, Ever): 90% | Subjects that reached castrate levels of serum total testosterone ([5]; 1000 mg BID): 94% | Subjects that experienced a VTE ([5]; 1500 mg BID dose group, including one fatal pulmonary embolus): 2 subjects | Castration (%) ([5]; 1500 mg BID, D28): 85.7% | Castration (%) ([5]; 1500 mg BID, Ever): 95.2% | Subjects that reached castrate levels of serum total testosterone ([5]; 1500 mg BID): 90% | Serum PSA levels in castrate animals ([6]; 1, 10, 100 mg/kg/day oral (groups 4, 5 and 6), within four weeks): significantly suppressed | Mean prostate weights at necropsy ([6]; after thirteen weeks of treatment): significantly reduces | Testosterone flare ([6]; castrated animals treated with Compound IV): not observed | Antagonist effects on estradiol-stimulated transcriptional activation (rat ER-α; estradiol 1 nM, Compound IV up to 10 μM): no antagonist effects were observed | Relative selectivity in transactivation potency for ERα over ERβ (rat ER-α; normalized to estradiol values): 16 fold
